Laboratory results as given in ChEMBL document CHEMBL4507268 (2021).

What was measured:
Settings in all cases: Compound concentration 1.0 uM
[1] = molecular target: Serine/threonine-protein kinase PAK 2 (Homo sapiens) (UniProt Q13177)
[2] = molecular target: Protein-tyrosine kinase 2-beta (Homo sapiens) (UniProt Q14289)
[3] = molecular target: Serine/threonine-protein kinase PAK 5 (Homo sapiens) (UniProt Q9P286)
[4] = molecular target: T1, Serine/threonine-protein kinase BRSK1 (Homo sapiens) (UniProt Q8TDC3)
T1 sequence (whole entry): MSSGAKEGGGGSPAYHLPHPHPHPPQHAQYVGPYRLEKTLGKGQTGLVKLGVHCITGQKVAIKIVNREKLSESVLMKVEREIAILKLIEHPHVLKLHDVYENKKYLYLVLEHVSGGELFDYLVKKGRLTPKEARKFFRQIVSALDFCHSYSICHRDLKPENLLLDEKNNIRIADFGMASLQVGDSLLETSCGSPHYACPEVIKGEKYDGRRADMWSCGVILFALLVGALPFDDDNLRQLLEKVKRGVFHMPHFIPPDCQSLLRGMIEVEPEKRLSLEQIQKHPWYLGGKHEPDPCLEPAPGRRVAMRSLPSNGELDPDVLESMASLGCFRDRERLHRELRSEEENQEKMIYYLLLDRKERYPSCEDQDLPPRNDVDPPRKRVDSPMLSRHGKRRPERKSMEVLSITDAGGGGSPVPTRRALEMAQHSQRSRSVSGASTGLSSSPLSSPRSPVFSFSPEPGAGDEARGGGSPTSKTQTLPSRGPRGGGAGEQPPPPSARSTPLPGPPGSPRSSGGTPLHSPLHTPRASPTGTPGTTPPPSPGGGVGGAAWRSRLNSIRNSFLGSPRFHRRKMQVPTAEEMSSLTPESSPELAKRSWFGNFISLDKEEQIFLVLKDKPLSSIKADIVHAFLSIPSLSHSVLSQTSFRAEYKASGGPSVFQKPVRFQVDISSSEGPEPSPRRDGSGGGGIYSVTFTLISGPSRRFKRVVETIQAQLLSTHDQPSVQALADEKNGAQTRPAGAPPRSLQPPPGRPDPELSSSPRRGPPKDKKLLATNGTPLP

[5] = molecular target: Eukaryotic elongation factor 2 kinase (Homo sapiens) (UniProt O00418)
[6] = molecular target: Insulin receptor (Homo sapiens) (UniProt P06213)
[7] = molecular target: Focal adhesion kinase 1 (Homo sapiens) (UniProt Q05397)
[8] = molecular target: T2, Ephrin type-A receptor 3 (Homo sapiens) (UniProt P29320)
T2 sequence (whole entry): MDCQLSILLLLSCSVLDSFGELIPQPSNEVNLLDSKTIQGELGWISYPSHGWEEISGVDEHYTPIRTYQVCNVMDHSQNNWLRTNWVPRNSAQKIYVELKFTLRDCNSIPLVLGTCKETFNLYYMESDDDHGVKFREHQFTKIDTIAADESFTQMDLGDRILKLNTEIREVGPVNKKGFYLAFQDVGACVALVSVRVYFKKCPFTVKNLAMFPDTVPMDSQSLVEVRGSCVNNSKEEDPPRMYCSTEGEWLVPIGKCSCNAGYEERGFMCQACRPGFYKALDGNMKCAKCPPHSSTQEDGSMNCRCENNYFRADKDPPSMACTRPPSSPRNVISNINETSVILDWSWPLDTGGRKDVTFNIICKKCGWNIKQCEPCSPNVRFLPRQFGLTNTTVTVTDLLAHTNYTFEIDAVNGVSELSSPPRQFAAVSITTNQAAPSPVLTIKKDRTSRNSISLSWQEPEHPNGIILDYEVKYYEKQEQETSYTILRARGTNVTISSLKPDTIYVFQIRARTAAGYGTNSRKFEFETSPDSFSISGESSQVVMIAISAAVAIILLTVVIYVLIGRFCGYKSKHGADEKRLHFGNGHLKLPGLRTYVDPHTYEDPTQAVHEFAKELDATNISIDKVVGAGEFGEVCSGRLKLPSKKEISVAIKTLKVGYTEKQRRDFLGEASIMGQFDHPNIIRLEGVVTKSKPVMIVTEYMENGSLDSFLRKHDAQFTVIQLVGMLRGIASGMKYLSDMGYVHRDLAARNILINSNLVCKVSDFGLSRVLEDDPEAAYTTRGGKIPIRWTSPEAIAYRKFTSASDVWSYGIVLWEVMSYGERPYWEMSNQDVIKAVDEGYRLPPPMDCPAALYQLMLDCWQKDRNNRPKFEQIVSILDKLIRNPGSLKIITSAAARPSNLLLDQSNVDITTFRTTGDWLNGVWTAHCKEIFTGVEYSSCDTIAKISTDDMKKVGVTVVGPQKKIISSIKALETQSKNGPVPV

[9] = molecular target: Serine/threonine-protein kinase 10 (Homo sapiens) (UniProt O94804)
[10] = molecular target: Leucine-rich repeat serine/threonine-protein kinase 2 (Homo sapiens) (UniProt Q5S007)
[11] = molecular target: T3, Mitogen-activated protein kinase kinase kinase 3 (Homo sapiens) (UniProt Q99759)
T3 sequence (whole entry): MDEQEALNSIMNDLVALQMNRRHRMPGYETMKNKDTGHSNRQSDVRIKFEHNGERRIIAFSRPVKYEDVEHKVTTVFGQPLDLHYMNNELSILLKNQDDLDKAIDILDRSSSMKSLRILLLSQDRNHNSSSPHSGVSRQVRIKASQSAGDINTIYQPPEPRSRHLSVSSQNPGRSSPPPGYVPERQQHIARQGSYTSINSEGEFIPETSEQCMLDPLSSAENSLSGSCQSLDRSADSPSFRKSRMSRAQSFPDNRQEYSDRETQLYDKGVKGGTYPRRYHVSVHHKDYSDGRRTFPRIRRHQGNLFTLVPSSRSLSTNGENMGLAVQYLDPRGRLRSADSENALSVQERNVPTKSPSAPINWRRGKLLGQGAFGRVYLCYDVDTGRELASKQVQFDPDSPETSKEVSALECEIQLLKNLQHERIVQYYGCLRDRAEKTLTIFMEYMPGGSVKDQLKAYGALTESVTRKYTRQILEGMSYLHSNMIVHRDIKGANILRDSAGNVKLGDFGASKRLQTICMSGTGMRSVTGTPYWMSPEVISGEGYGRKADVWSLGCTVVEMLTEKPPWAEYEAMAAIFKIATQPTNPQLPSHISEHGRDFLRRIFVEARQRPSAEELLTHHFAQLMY

[12] = molecular target: DNA-dependent protein kinase catalytic subunit (Homo sapiens) (UniProt P78527)
[13] = molecular target: Serine/threonine-protein kinase VRK1 (Homo sapiens) (UniProt Q99986)

Measured: % residual kinase activity

Serine/threonine-protein kinase 10 (Homo sapiens), sequence (O94804 whole entry, looked up): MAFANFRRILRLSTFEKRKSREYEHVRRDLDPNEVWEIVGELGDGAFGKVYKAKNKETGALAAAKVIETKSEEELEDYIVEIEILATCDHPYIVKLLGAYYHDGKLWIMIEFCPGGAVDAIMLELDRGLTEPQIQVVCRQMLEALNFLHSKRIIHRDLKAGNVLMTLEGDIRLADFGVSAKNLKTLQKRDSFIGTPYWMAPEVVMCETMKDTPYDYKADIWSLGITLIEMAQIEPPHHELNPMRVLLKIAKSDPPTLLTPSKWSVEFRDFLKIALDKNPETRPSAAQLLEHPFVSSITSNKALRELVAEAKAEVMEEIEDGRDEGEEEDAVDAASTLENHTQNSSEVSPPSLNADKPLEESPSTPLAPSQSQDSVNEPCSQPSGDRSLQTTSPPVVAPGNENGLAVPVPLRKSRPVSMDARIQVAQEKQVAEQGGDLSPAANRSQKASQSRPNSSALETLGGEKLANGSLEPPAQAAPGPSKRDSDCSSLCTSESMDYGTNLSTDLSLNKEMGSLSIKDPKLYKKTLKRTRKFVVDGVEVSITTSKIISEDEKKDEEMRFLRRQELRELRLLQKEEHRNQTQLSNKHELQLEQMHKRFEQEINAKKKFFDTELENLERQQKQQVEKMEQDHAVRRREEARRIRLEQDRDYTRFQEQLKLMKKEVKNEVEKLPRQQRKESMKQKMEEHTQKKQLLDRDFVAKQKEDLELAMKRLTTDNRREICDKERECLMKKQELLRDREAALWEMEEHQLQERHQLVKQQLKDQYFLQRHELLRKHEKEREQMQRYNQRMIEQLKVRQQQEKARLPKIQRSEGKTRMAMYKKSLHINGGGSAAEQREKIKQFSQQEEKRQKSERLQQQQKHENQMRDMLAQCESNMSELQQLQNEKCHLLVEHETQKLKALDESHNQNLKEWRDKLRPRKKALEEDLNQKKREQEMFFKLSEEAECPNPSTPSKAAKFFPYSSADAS
Protein-tyrosine kinase 2-beta (Homo sapiens), sequence (Q14289 whole entry, looked up): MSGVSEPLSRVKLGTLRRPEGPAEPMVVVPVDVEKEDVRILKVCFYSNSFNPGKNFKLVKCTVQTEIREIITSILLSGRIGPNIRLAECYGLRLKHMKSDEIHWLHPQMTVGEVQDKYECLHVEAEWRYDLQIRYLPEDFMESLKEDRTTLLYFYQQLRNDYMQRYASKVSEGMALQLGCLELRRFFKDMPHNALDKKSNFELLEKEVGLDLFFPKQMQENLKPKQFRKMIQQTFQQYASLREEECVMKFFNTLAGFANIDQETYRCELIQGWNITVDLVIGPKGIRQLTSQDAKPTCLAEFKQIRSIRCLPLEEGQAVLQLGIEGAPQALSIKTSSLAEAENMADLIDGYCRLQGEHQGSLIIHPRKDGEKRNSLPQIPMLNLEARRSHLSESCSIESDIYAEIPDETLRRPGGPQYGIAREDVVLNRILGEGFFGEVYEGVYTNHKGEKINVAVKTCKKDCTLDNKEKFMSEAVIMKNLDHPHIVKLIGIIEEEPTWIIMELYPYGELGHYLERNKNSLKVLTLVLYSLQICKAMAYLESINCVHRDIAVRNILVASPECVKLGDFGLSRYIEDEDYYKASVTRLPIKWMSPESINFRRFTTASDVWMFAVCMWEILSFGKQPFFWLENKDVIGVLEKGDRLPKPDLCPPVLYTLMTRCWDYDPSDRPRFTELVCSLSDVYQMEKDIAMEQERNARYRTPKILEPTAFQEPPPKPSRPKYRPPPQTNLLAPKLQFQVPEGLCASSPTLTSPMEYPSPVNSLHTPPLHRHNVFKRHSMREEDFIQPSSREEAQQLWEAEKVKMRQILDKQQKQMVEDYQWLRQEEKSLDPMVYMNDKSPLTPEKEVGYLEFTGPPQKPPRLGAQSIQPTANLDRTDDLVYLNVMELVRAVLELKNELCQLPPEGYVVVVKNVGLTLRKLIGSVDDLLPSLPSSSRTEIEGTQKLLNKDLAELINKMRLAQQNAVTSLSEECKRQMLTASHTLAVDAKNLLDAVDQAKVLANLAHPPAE
Serine/threonine-protein kinase PAK 2 (Homo sapiens), sequence (Q13177 whole entry): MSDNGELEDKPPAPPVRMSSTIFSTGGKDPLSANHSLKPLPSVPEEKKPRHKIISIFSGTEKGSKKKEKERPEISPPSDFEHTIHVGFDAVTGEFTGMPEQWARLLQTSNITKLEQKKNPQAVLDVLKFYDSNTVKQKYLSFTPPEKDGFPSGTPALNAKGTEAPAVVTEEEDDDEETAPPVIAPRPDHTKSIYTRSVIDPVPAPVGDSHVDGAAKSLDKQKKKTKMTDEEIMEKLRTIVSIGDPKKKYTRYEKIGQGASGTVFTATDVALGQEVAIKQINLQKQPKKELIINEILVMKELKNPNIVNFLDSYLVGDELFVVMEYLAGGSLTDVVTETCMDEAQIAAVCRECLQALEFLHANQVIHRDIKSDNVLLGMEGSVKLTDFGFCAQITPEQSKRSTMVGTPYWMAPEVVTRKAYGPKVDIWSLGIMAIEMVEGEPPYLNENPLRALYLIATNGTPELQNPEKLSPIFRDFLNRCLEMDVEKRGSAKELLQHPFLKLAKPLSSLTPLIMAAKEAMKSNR
Eukaryotic elongation factor 2 kinase (Homo sapiens), sequence (O00418 whole entry): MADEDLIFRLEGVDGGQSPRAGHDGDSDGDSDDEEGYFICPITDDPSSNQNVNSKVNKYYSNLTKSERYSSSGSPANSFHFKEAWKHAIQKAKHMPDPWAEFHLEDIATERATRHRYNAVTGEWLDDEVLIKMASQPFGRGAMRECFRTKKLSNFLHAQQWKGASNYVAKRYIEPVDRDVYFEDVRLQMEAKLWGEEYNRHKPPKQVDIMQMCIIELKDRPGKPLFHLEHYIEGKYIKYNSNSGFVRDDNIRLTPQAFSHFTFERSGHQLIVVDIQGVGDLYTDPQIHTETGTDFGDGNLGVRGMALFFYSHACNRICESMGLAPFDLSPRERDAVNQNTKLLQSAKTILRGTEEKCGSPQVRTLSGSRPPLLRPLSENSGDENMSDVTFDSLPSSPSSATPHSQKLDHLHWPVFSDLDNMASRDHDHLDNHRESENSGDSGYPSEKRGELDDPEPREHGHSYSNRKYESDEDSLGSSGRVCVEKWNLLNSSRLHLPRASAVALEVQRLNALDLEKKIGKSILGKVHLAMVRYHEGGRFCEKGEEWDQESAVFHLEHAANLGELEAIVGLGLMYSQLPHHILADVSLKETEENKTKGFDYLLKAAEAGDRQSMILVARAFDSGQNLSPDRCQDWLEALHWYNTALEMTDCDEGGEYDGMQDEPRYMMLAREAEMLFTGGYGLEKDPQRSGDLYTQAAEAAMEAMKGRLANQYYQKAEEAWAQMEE
Serine/threonine-protein kinase PAK 5 (Homo sapiens), sequence (Q9P286 whole entry, looked up): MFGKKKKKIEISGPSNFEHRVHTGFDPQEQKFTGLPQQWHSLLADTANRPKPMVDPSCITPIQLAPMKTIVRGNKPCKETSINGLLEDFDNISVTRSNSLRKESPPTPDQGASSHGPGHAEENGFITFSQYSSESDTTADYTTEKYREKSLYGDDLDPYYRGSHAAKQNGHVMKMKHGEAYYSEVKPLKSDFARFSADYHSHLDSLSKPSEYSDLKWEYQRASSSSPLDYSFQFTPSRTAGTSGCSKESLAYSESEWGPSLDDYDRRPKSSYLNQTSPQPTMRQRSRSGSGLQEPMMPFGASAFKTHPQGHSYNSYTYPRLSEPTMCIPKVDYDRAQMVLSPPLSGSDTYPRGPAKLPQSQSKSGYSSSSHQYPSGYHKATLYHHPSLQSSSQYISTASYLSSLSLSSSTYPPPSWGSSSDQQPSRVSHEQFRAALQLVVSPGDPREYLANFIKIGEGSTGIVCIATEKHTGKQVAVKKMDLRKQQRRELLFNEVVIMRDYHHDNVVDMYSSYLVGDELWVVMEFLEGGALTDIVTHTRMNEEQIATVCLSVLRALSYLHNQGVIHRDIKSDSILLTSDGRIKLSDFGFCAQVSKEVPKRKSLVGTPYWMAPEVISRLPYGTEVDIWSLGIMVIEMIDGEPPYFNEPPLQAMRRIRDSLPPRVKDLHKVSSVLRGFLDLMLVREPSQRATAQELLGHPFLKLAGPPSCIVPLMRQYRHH
Focal adhesion kinase 1 (Homo sapiens), sequence (Q05397 2-1052 limits assumed): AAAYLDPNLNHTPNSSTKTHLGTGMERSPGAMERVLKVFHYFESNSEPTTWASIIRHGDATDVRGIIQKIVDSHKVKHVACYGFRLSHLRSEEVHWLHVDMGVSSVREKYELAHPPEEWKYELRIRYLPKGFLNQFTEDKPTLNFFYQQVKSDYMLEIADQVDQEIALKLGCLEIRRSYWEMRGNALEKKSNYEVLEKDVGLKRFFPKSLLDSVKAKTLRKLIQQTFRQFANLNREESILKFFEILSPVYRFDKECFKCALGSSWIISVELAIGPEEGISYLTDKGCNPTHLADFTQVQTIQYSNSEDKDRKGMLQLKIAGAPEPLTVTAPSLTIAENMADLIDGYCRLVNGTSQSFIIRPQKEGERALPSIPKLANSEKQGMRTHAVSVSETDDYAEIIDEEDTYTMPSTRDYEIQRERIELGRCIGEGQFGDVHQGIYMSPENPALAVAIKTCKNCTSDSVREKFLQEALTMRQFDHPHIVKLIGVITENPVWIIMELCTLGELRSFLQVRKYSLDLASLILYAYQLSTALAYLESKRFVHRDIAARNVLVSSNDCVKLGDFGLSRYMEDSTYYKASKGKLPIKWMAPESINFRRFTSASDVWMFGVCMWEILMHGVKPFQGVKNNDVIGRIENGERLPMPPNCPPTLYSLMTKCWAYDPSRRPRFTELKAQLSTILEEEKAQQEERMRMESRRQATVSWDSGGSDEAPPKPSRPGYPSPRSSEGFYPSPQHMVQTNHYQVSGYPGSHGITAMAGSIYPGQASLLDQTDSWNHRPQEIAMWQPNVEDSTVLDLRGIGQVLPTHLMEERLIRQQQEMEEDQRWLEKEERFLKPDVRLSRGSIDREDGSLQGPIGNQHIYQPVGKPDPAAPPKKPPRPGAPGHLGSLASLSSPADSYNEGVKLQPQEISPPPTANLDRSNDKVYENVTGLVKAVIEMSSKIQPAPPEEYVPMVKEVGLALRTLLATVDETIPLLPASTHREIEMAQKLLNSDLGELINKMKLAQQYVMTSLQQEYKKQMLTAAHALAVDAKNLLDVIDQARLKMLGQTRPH

CN1CCN(c2cnc3c(C4CCN(C(=O)c5ccc(OC(F)(F)F)cc5N)CC4)ncnc3c2)CC1 [BAY-885]
inactive: [1] 108% | [2] 103% | [3] 115% | [4] 104% | [5] 113% | [6] 99% | [7] 101% | [8] 86% | [9] 114% | [10] 102% | [11] 94% | [12] 102% | [13] 100%
